Biological target: T1, BRD9 (Homo sapiens, UniProt Q9H8M2)
T1 sequence (Q9H8M2 1-597): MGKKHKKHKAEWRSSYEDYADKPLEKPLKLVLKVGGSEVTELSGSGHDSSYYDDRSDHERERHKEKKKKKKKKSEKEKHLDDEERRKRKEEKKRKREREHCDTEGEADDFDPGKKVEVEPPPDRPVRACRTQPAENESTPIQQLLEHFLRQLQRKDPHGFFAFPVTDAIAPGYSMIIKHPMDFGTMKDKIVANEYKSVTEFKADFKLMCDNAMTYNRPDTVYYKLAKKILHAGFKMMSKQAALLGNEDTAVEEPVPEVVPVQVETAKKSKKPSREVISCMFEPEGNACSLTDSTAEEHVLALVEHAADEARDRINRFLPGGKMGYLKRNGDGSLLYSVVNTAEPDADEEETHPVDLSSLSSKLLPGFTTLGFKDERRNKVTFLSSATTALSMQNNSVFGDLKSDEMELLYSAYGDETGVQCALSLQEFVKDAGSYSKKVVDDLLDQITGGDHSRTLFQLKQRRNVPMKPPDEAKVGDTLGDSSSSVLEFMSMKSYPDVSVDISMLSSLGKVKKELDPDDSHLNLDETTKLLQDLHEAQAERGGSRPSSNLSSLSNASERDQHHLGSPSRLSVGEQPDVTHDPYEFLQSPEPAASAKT
Test: HiBiT BRD9 degradation assay in 293T.166 (BRD9-HiBiT) cells
Type: cell-based
Parameters: endogenously expressing BRD9 with HiBiT fusion tag via CRISPR; host or cells: 293T.166 (BRD9-HiBiT), also expressing LgBiT ectopically
Conditions: Table 1; 293T.166 cells, 2.0 hours; class symbols; read-out: HiBiT-Degradation 293T.166 BRD9 2.0 hours (DC50)
Experimental: Selected compounds were tested in a BRD9 degradation assay using the HiBit Method.
Dulbecco's modified Eagle medium (DMEM) without phenol red and fetal bovine serum (FBS) were purchased from Gibco (Grand Island, N.Y., USA). Nano-Glo® HiBiT Lytic Assay System was purchased from Promega (Madison, Wis., USA). 293T.166 (BRD9-HiBiT) cell line, endogenously expressing BRD9 with HiBiT fusion tag via CRISPR and ectopically expressing LgBiT tag, was purchased from Promega (Madison, Wis., USA). 293T.167 (BRD7-HiBiT) cell line, endogenously expressing BRD7 with HiBiT fusion tag via CRISPR and ectopically expressing LgBiT tag, was purchased from Promega (Madison, Wis., USA). 293T.92 (BRD4-HiBiT) cell line, endogenously expressing BRD4 with HiBiT fusion tag via CRISPR and ectopically expressing LgBiT tag, was generated in-house. Cell culture flasks and 384-well microplates were acquired from VWR (Radnor, Pa., USA).
BRD9 degradation was determined based on quantification of luminescent signal using Nano-Glo® HiBiT Lytic Assay kit. Test compounds were added to the 384-well plate from a top concentration of 10 μM with 11 points, half log titration in duplicates. 293T.166 cells were added into 384-well plates at a cell density of 10,000 cells per well. The plates were kept at 37° C. with 5% CO2 for 2 hours. BRD7 and BRD4 degradation was similarly determined with 293T.167 cells and 293T.92 cells, respectively. The cells treated in the absence of the test compound were the negative control and the cells without Nano-Glo® HiBiT Lytic reagent were the positive control. After 2-hour incubation, Nano-Glo® HiBiT Lytic Assay reagents were added to the cells. Luminescence was acquired on EnVision™ Multilabel Reader (PerkinElmer, Santa Clara, Calif., USA).

Structure (SMILES) | DC50
COc1cc(-c2cn(C)c(=O)c3cnccc23)cc(Cl)c1CN1CCC(N2CCN(c3ccc(NC4CCC(=O)NC4=O)cc3F)CC2)C(F)(F)C1 (single isomer, unassigned) [Compound 181, 3-[4-[4-[1-[[2-chloro-6-methoxy-4-(2-methyl-1-oxo-2,7-naphthyridin-4-yl)phenyl]methyl]-3,3-difluoro-4-piperidyl]piperazin-1-yl]-3-fluoro-anilino]piperidine-2,6-dione] | < 100 nM
COc1cc(-c2cn(C)c(=O)c3[nH]ncc23)cc(F)c1C(=O)N1CCN(C(=O)CN2CCC(c3ccc(NC4CCC(=O)NC4=O)cc3)CC2)CC1 (stereo not shown) [Compound 47] | < 100 nM
COc1cc(-c2cn(C)c(=O)c3ccccc23)cc(Cl)c1CN1CCC(N2CCN(c3ccc(NC4CCC(=O)NC4=O)cc3F)CC2)C(F)(F)C1 (stereo not shown) [Compound 192] | < 100 nM
CN(C(=O)N1CCC(c2ccc(NC3CCC(=O)NC3=O)cc2F)CC1)C1CCN(C(=O)c2ccc(-c3cn(C)c(=O)c4cnccc34)cc2OC(F)(F)F)CC1 (stereo not shown) [Compound 138] | < 100 nM
CN(C(=O)N1CCC(c2ccc(NC3CCC(=O)NC3=O)cc2)CC1)C1CCN(C(=O)c2ccc(-c3cn(C)c(=O)c4ccc(F)cc34)cc2OC(F)(F)F)CC1 (stereo not shown) [Compound 128] | < 100 nM
COc1cc(-c2cn(C)c(=O)c3[nH]ncc23)c(Cl)cc1CN1CCN(C(=O)CN2CCC(c3ccc(NC4CCC(=O)NC4=O)cc3)CC2)CC1 (stereo not shown) [Compound 19] | < 100 nM

Further lines, results first:

DC50 | Structure (SMILES)
< 100 nM | Cc1c(-c2ccc(C(=O)N3CCC(N(C)C(=O)N4CCC(c5ccc(NC6CCC(=O)NC6=O)cc5)CC4)CC34CC4)c(OC(F)(F)F)c2)cn(C)c(=O)c1C (stereo not shown) [Compound 137]
< 100 nM | Cc1c(-c2ccc(C(=O)N3CCC(C4CCN(c5ccc(NC6CCC(=O)NC6=O)cc5F)CC4)CC3)c(OC(F)(F)F)c2)cn(C)c(=O)c1C (single isomer, unassigned) [Compound 214, 3-[3-fluoro-4-[4-[1-[2-(trifluoromethoxy)-4-(1,4,5-trimethyl-6-oxo-3-pyridyl)benzoyl]-4-piperidyl]-1-piperidyl]anilino]piperidine-2,6-dione]
< 100 nM | CN(C(=O)N1CCC(c2ccc(NC3CCC(=O)NC3=O)cc2)CC1)C1CCN(C(=O)c2ccc(-c3cn(C)c(=O)c4cc(F)ccc34)cc2OC(F)(F)F)CC1 (stereo not shown) [Compound 131]
< 100 nM | COc1cc(-c2cn(C)c(=O)c3[nH]ncc23)cc(Cl)c1C(=O)N1CCC(C2CCN(c3ccc(NC4CCC(=O)NC4=O)nc3)CC2)CC1 (stereo not shown) [Compound 222]
< 100 nM | COc1cc(-c2cn(C)c(=O)c3cnccc23)cc(Cl)c1CN1CCC(N2CCN(c3ccc(NC4CCC(=O)NC4=O)cc3F)CC2)C(F)(F)C1 (single isomer, unassigned) [Compound 179, 3-[4-[4-[1-[[2-chloro-6-methoxy-4-(2-methyl-1-oxo-2,7-naphthyridin-4-yl)phenyl]methyl]-3,3-difluoro-4-piperidyl]piperazin-1-yl]-3-fluoro-anilino]piperidine-2,6-dione]
< 100 nM | Cn1cc(-c2ccc(CN3CCN(C(=O)CN4CCC(c5ccc(NC6CCC(=O)NC6=O)cc5)CC4)CC3)c(OC(F)(F)F)c2)c2cn[nH]c2c1=O (stereo not shown) [Compound 20]
< 100 nM | CN(C(=O)N1CCC(c2ccc(NC3CCC(=O)NC3=O)cc2)CC1)C1CCN(Cc2ccc(-c3cn(C)c(=O)c4cc(F)ccc34)cc2OC(F)(F)F)CC1(F)F (stereo not shown) [Compound 123]
< 100 nM | COc1cc(-c2cn(C)c(=O)c3cnccc23)cc(Cl)c1CN1CCC(N(C)C(=O)N2CCC(c3ccc(NC4CCC(=O)NC4=O)cc3)CC2)CC1 (stereo not shown) [Compound 115]

Same assay, conditions: Table 2; 293T.166 cells, 2.0 hours; class symbols; read-out: HiBiT-Degradation 293T.166 BRD9 2.0 hours (DC50)

DC50 | Structure (SMILES)
< 100 nM | COc1cc(-c2cn(C)c(=O)c(C)c2C)cc(Cl)c1CN1CCc2c(CC3CCN(c4ccc(NC5CCC(=O)NC5=O)cc4F)CC3)cccc2C1 (single isomer, unassigned) [Compound 250]

Same assay, conditions: Table 2; 293T.166 cells, 2.0 hours; numeric bound; read-out: HiBiT-Degradation 293T.166 BRD9 2.0 hours (DC50)

DC50 | Structure (SMILES)
> 800 nM | COc1cc(-c2cn(C)c(=O)c(C)c2C)cc(Cl)c1CN1CCc2c(CC3CCN(c4ccc(NC5CCC(=O)NC5=O)cc4F)CC3)cccc2C1 (single isomer, unassigned) [Compound 249]
